# ChEMBL document CHEMBL4251579, “Design, synthesis, and biological evaluation of a series of resorcinol-based N-benzyl benzamide derivatives as potent Hsp90 inhibitors” (Eur J Med Chem, 2018)
# Active and inactive are the calls of the source. The rule behind the calls is not given here.
# Tests used:
# NCI-H1975 [1] = assay: Antiproliferative activity against human NCI-H1975 cells after 72 hrs by Cell Titer 96 Aqueous One Solution cell proliferation assay; assay type: functional; details: NCI-H1975, 72 h
# SK-BR-3 = assay: Antiproliferative activity against human SKBR3 cells after 72 hrs by Cell Titer 96 Aqueous One Solution cell proliferation assay; assay type: functional
# [2] = target: T1, Heat shock protein HSP 90-alpha (Homo sapiens, UniProt P07900); assay: Inhibition of FITC-geldanamycin binding to N-terminal domain of recombinant full-length HSP90alpha (unknown origin) after 16 hrs by fluorescence polarization assay
# [3] = target: T1, Heat shock protein HSP 90-alpha; assay: Binding affinity to N-terminal domain of recombinant full-length HSP90alpha (unknown origin) by surface plasmon resonance assay
# [4] = target: T2, Heat shock protein HSP90 (Homo sapiens) (UniProt P07900+P08238); assay: Inhibition of HSP90 in human NCI-H1975 cells assessed as decrease in EGFR protein expression at 0.05 to 1 uM after 24 hrs by Western blot analysis; assay type: cell-based
# [5] = target: T2, Heat shock protein HSP90 (Homo sapiens); assay: Inhibition of HSP90 in human NCI-H1975 cells assessed as decrease in Her2 protein expression at 0.05 to 1 uM after 24 hrs by Western blot analysis; assay type: cell-based
# [6] = target: T2, Heat shock protein HSP90 (Homo sapiens); assay: Inhibition of HSP90 in human NCI-H1975 cells assessed as decrease in Met protein expression at 0.05 to 1 uM after 24 hrs by Western blot analysis; assay type: cell-based
# [7] = target: T2, Heat shock protein HSP90 (Homo sapiens); assay: Inhibition of HSP90 in human NCI-H1975 cells assessed as decrease in Akt protein expression at 0.05 to 1 uM after 24 hrs by Western blot analysis; assay type: cell-based
# [8] = target: T2, Heat shock protein HSP90 (Homo sapiens); assay: Inhibition of HSP90 in human NCI-H1975 cells assessed as decrease in c-Raf protein expression at 0.05 to 1 uM after 24 hrs by Western blot analysis; assay type: cell-based
# [9] = target: T2, Heat shock protein HSP90 (Homo sapiens); assay: Inhibition of HSP90 in human NCI-H1975 cells assessed as induction of HSP70 expression at 0.05 to 1 uM after 24 hrs by Western blot analysis; assay type: cell-based
# [10] = target: T2, Heat shock protein HSP90 (Homo sapiens); assay: Inhibition of HSP90 in human NCI-H1975 cells assessed as induction of HSP90 expression at 0.05 to 1 uM after 24 hrs by Western blot analysis; assay type: cell-based
# NCI-H1975 [11] = assay: Induction of apoptosis in human NCI-H1975 cells assessed as increase in cleaved PARP expression at 0.05 to 1 uM after 24 hrs by Western blot analysis; assay type: functional, cell-based
# NCI-H1975 [12] = assay: Induction of apoptosis in human NCI-H1975 cells assessed as increase in cleaved caspase-3 expression at 0.05 to 1 uM after 24 hrs by Western blot analysis; assay type: functional, cell-based
# NCI-H1975 [13] = assay: Induction of apoptosis in human NCI-H1975 cells assessed as increase in cleaved caspase-8 expression at 0.05 to 1 uM after 24 hrs by Western blot analysis; assay type: functional, cell-based
# NCI-H1975 [14] = assay: Induction of apoptosis in human NCI-H1975 cells assessed as increase in Bax expression levels at 0.05 to 1 uM after 24 by Western blot analysis; assay type: functional, cell-based
# NCI-H1975 [15] = assay: Induction of apoptosis in human NCI-H1975 cells assessed as increase in Bcl2 expression levels at 0.05 to 1 uM after 24 by Western blot analysis; assay type: functional, cell-based
# Cytochrome P450 2C9 = Cytochrome P450 2C9 (Homo sapiens, UniProt P11712); assay: Inhibition of CYP2C9 in human pooled human liver microsomes using tolbutamide as substrate assessed as tolbutamide 4-methylhydroxylation preincubated for 5 mins followed by NADPH addition measured after 15 mins by LC-MS/MS analysis; assay type: ADME
# Cytochrome P450 1A2 = target: T3, Cytochrome P450 1A2 (Homo sapiens, UniProt P05177); assay: Inhibition of CYP1A2 in human pooled human liver microsomes using phenacetin as substrate assessed as […] preincubated for 5 mins followed by NADPH addition measured after 15 mins by LC-MS/MS analysis; assay type: ADME
# T3 sequence (P05177 whole entry): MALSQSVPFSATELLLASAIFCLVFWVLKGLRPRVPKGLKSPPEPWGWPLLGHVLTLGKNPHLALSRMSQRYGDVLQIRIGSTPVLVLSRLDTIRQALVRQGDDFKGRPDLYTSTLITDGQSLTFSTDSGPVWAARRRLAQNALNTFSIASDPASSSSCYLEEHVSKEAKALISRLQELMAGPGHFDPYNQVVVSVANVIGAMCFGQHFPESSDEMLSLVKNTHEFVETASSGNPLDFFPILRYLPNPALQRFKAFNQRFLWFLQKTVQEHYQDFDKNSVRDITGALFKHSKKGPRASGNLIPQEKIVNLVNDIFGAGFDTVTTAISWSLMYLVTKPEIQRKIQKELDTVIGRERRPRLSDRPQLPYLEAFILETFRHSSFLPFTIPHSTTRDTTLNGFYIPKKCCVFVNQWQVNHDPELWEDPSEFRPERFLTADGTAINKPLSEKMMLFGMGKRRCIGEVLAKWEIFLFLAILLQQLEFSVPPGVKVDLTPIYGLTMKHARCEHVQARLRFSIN
# Cytochrome P450 2C19 = Cytochrome P450 2C19 (Homo sapiens, UniProt P33261); assay: Inhibition of CYP2C19 in human pooled human liver microsomes using omeprazole as substrate assessed as omepraozle hydroxylation preincubated for 5 mins followed by NADPH addition measured after 15 mins by LC-MS/MS analysis; assay type: ADME
# Cytochrome P450 2D6 = Cytochrome P450 2D6 (Homo sapiens, UniProt P10635); assay: Inhibition of CYP2D6 in human pooled human liver microsomes using dextromethorphan as substrate assessed as dextromethorphan O-demethylation preincubated for 5 mins followed by NADPH addition measured after 15 mins by LC-MS/MS analysis; assay type: ADME
# CYP3A = CYP3A (Homo sapiens, UniProt P08684+P20815+P24462+Q9HB55); assay: Inhibition of CYP3A in human pooled human liver microsomes using midazolam as substrate assessed as midazolam 1'-hydroxylation preincubated for 5 mins followed by NADPH addition measured after 15 mins by LC-MS/MS analysis; assay type: ADME; details: probe midazolam
# Mus musculus [16] = assay: Toxicity in NOD-scid IL2Rgamma null mouse xenografted with human NCI-H1975 cells assessed as change in body weight at 25 to 50 mg/kg, ip dosed daily for 5 days per week followed by 2 days rest for 3 weeks and measured after 21 days post dose; assay type: organism-based; details: in vivo, 504 h
# NCI-H1975 [17] = assay: Antitumor activity against human NCI-H1975 cells xenografted in NOD-scid IL2Rgamma null mouse assessed as delay in tumor growth at 25 to 50 mg/kg, ip dosed daily for 5 days per week followed by 2 days rest for 3 weeks and measured up to 21 days post dose; assay type: functional, organism-based
# Mus musculus [18] = assay: In vivo inhibition of HSP90 in NOD-scid IL2Rgamma null mouse tumor xenografted with human NCI-H1975 cells assessed as decrease in EGFR protein expression at 25 to 50 mg/kg, ip dosed daily for 5 days per week followed by 2 days rest for 3 weeks and measured after 21 days post dose by immunoblot analysis; assay type: functional, organism-based
# Mus musculus [19] = assay: In vivo inhibition of HSP90 in NOD-scid IL2Rgamma null mouse tumor xenografted with human NCI-H1975 cells assessed as decrease in Met protein expression at 25 to 50 mg/kg, ip dosed daily for 5 days per week followed by 2 days rest for 3 weeks and measured after 21 days post dose by immunoblot analysis; assay type: functional, organism-based
# Mus musculus [20] = assay: In vivo inhibition of HSP90 in NOD-scid IL2Rgamma null mouse tumor xenografted with human NCI-H1975 cells assessed as decrease in Akt protein expression at 25 to 50 mg/kg, ip dosed daily for 5 days per week followed by 2 days rest for 3 weeks and measured after 21 days post dose by immunoblot analysis; assay type: functional, organism-based
# Mus musculus [21] = assay: In vivo inhibition of HSP90 in NOD-scid IL2Rgamma null mouse tumor xenografted with human NCI-H1975 cells assessed as decrease in EGFR protein expression at 25 to 50 mg/kg, ip dosed daily for 5 days per week followed by 2 days rest for 3 weeks and measured after 21 days post dose by haematoxylin and eosin staining-based immunohistochemical analysis; assay type: functional, organism-based
# Mus musculus [22] = assay: In vivo inhibition of HSP90 in NOD-scid IL2Rgamma null mouse tumor xenografted with human NCI-H1975 cells assessed as decrease in Met protein expression at 25 to 50 mg/kg, ip dosed daily for 5 days per week followed by 2 days rest for 3 weeks and measured after 21 days post dose by haematoxylin and eosin staining-based immunohistochemical analysis; assay type: functional, organism-based
# Mus musculus [23] = assay: In vivo inhibition of HSP90 in NOD-scid IL2Rgamma null mouse tumor xenografted with human NCI-H1975 cells assessed as decrease in Akt protein expression at 25 to 50 mg/kg, ip dosed daily for 5 days per week followed by 2 days rest for 3 weeks and measured after 21 days post dose by haematoxylin and eosin staining-based immunohistochemical analysis; assay type: functional, organism-based
# NCI-H1975 [24] = assay: Effect on beta-actin protein levels in human NCI-H1975 cells at 0.05 to 1 uM after 24 hrs by Western blot analysis; assay type: ADME, cell-based; details: nci-h1975, 24 h
# Mus musculus [25] = assay: Toxicity in NOD-scid IL2Rgamma null mouse xenografted with human NCI-H1975 cells assessed as induction of abnormal behaviours at 25 to 50 mg/kg, ip measured after 21 days; assay type: organism-based; details: in vivo, 504 h
# Sequence of Cytochrome P450 2C19 (P33261 whole entry): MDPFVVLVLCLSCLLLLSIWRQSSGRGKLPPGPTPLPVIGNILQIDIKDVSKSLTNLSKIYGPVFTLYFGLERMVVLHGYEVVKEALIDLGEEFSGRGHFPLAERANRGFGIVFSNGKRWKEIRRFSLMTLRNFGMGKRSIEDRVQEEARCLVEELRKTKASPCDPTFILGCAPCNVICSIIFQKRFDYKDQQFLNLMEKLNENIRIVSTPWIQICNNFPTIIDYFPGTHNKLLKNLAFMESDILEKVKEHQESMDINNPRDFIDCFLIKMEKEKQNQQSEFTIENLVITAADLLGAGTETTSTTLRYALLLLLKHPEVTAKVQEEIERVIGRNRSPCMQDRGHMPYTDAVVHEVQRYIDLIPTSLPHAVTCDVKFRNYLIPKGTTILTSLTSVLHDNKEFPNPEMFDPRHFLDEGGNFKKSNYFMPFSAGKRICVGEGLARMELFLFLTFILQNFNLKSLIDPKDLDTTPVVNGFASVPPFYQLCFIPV
# Sequence of Cytochrome P450 2D6 (P10635 whole entry): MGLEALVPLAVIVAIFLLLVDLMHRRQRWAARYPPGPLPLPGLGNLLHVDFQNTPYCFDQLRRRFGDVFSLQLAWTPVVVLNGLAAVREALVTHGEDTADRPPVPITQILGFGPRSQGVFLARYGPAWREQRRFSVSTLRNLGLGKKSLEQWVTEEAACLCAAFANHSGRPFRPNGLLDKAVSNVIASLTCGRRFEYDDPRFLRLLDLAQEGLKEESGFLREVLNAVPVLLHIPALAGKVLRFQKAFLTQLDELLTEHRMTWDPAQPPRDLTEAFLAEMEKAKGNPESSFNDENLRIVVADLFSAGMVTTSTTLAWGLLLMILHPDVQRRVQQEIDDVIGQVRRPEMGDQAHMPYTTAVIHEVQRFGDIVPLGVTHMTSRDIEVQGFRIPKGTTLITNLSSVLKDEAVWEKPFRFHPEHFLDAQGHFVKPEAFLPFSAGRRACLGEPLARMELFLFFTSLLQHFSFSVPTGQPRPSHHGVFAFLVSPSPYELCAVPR
# Sequence of Cytochrome P450 2C9 (P11712 whole entry): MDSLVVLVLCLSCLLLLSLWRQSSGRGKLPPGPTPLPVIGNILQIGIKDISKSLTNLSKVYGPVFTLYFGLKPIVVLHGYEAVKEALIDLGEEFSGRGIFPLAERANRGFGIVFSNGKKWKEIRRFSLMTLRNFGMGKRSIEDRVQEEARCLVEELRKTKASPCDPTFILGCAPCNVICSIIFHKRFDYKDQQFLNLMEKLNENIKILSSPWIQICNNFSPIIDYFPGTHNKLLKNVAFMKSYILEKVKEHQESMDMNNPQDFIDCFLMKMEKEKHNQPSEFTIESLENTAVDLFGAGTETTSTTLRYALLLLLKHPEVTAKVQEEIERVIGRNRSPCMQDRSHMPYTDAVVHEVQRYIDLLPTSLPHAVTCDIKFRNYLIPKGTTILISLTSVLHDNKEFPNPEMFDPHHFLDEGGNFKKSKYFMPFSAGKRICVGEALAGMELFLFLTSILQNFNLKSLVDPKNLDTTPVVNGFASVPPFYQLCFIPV
structure (smiles),measurement,setting,value
CCNC(=O)c1ccc(CN(C)C(=O)c2cc(Cl)c(O)cc2O)cc1,GI50,NCI-H1975 [1],21.7 µM
Cc1ccccc1CN(C)C(=O)c1cc(Cl)c(O)cc1O,GI50,"SK-BR-3; SK-BR-3, 72 h",4.2 µM
same,GI50,NCI-H1975 [1],47.5 µM
CN(Cc1ccccc1)C(=O)c1cc(Cl)c(O)cc1O,GI50,"SK-BR-3; SK-BR-3, 72 h",18.3 µM
same,GI50,NCI-H1975 [1],35.5 µM
COc1ccc(CN(C)C(=O)c2cc(Cl)c(O)cc2O)cc1OC,GI50,"SK-BR-3; SK-BR-3, 72 h",7.7 µM
same,GI50,NCI-H1975 [1],33.4 µM
O=C(NCc1ccccc1)c1cc(Cl)c(O)cc1O,GI50,SK-BR-3,inactive
same,GI50,NCI-H1975 [1],86.2 µM
CNC(=O)c1ccc(CN(C)C(=O)c2cc(C(C)C)c(O)cc2O)cc1,IC50,[2],0.0114 µM
same,GI50,NCI-H1975 [1],0.86 µM
COc1cc(CN(C)C(=O)c2cc(Cl)c(O)cc2O)c(Br)c(OC)c1OC,GI50,"SK-BR-3; SK-BR-3, 72 h",7.7 µM
same,GI50,NCI-H1975 [1],34.3 µM
COc1cc(CN(C)C(=O)c2cc(Cl)c(O)cc2O)cc(OC)c1OC,IC50,[2],> 1 µM
same,GI50,"SK-BR-3; SK-BR-3, 72 h",30.1 µM
same,GI50,NCI-H1975 [1],73.1 µM
Cc1ccc(CN(C)C(=O)c2cc(Cl)c(O)cc2O)cc1,GI50,"SK-BR-3; SK-BR-3, 72 h",7.2 µM
same,GI50,NCI-H1975 [1],34.3 µM
CCNC(=O)c1ccc(CN(C)C(=O)c2cc(C(C)C)c(O)cc2O)cc1,GI50,NCI-H1975 [1],0.46 µM
CN(Cc1ccc2c(c1)OCO2)C(=O)c1cc(Cl)c(O)cc1O,GI50,"SK-BR-3; SK-BR-3, 72 h",41.8 µM
same,GI50,NCI-H1975 [1],103 µM
CNC(=O)c1ccc(CN(C)C(=O)c2cc(Cl)c(O)cc2O)cc1,IC50,[2],0.496 µM
same,GI50,NCI-H1975 [1],34.8 µM
COC1=C2C[C@@H](C)C[C@H](OC)[C@H](O)[C@@H](C)/C=C(\C)[C@H](OC(N)=O)[C@@H](OC)/C=C\C=C(/C)C(=O)NC(=CC1=O)C2=O [GELDANAMYCIN],GI50,SK-BR-3,inactive
same,GI50,NCI-H1975 [1],0.56 µM
COc1cc(CN(C)C(=O)c2cc(Cl)c(O)cc2O)c(Cl)c(OC)c1OC,GI50,"SK-BR-3; SK-BR-3, 72 h",2.4 µM
same,GI50,NCI-H1975 [1],33.8 µM
Cc1cccc(CN(C)C(=O)c2cc(Cl)c(O)cc2O)c1,GI50,"SK-BR-3; SK-BR-3, 72 h",11.3 µM
same,GI50,NCI-H1975 [1],49.3 µM
CCCNC(=O)c1ccc(CN(C)C(=O)c2cc(Cl)c(O)cc2O)cc1,GI50,NCI-H1975 [1],20.8 µM
COc1ccc(CN(C)C(=O)c2cc(Cl)c(O)cc2O)cc1,GI50,"SK-BR-3; SK-BR-3, 72 h",7.2 µM
same,GI50,NCI-H1975 [1],16.7 µM
CCCNC(=O)c1ccc(CN(C)C(=O)c2cc(C(C)C)c(O)cc2O)cc1,IC50,[2],0.0053 µM
same,GI50,NCI-H1975 [1],0.42 µM
same,Kd,[3],0.00308 µM
same,inhibition,[4],Active
same,inhibition,[5],Active
same,inhibition,[6],Active
same,inhibition,[7],Active
same,inhibition,[8],Active
same,inhibition,[9],Active
same,inhibition,[10],Active
same,Activity,NCI-H1975 [11],Active
same,Activity,NCI-H1975 [12],Active
same,Activity,NCI-H1975 [13],Active
same,Activity,NCI-H1975 [14],inactive
same,Activity,NCI-H1975 [15],inactive
same,IC50,Cytochrome P450 2C9,5.3 µM
same,IC50,Cytochrome P450 1A2,34.1 µM
same,IC50,Cytochrome P450 2C19,14.6 µM
same,IC50,Cytochrome P450 2D6,23 µM
same,IC50 at 15 min,CYP3A,25.9 µM
same,Activity,Mus musculus [16],Non-Toxic
same,Activity,NCI-H1975 [17],Active
same,inhibition,Mus musculus [18],Active
same,inhibition,Mus musculus [19],Active
same,inhibition,Mus musculus [20],Active
same,inhibition,Mus musculus [21],Active
same,inhibition,Mus musculus [22],Active
same,inhibition,Mus musculus [23],Active
same,Activity,NCI-H1975 [24],Non-Toxic
same,Activity,Mus musculus [25],Non-Toxic
